23 compounds from patent US9783527B2, “Indazole ureas and method of use” (AbbVie Inc., priority 2014, dated 2017) can be followed below.

By IC50 is commonly meant the point on the concentration scale where inhibition reaches its midpoint.

The target in one assay is human Nav1.7 (Homo sapiens (Human), UniProt Q15858). The assay is described as follows: FRET-based membrane potential assay, recombinant human sodium channel Nav1.7. To be noted: HEK293 cells stably expressing recombinant human Nav1.7; depolarization with veratridine (EC80) + scorpion venom. The format is cell-based. Summed up: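 IC50 derived by four-parameter Hill fit of percent inhibition of depolarization, measured as peak F440-480/F565-625 ratio over baseline. Stable human Nav1.7 HEK293 cells, dye-loaded with CC2-DMPE and DiSBAC2(3)/VABSC-1 at room temperature, received compound 3 min ahead of veratridine (EC80) plus scorpion venom.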
Chain of human Nav1.7 (Q15858 whole entry): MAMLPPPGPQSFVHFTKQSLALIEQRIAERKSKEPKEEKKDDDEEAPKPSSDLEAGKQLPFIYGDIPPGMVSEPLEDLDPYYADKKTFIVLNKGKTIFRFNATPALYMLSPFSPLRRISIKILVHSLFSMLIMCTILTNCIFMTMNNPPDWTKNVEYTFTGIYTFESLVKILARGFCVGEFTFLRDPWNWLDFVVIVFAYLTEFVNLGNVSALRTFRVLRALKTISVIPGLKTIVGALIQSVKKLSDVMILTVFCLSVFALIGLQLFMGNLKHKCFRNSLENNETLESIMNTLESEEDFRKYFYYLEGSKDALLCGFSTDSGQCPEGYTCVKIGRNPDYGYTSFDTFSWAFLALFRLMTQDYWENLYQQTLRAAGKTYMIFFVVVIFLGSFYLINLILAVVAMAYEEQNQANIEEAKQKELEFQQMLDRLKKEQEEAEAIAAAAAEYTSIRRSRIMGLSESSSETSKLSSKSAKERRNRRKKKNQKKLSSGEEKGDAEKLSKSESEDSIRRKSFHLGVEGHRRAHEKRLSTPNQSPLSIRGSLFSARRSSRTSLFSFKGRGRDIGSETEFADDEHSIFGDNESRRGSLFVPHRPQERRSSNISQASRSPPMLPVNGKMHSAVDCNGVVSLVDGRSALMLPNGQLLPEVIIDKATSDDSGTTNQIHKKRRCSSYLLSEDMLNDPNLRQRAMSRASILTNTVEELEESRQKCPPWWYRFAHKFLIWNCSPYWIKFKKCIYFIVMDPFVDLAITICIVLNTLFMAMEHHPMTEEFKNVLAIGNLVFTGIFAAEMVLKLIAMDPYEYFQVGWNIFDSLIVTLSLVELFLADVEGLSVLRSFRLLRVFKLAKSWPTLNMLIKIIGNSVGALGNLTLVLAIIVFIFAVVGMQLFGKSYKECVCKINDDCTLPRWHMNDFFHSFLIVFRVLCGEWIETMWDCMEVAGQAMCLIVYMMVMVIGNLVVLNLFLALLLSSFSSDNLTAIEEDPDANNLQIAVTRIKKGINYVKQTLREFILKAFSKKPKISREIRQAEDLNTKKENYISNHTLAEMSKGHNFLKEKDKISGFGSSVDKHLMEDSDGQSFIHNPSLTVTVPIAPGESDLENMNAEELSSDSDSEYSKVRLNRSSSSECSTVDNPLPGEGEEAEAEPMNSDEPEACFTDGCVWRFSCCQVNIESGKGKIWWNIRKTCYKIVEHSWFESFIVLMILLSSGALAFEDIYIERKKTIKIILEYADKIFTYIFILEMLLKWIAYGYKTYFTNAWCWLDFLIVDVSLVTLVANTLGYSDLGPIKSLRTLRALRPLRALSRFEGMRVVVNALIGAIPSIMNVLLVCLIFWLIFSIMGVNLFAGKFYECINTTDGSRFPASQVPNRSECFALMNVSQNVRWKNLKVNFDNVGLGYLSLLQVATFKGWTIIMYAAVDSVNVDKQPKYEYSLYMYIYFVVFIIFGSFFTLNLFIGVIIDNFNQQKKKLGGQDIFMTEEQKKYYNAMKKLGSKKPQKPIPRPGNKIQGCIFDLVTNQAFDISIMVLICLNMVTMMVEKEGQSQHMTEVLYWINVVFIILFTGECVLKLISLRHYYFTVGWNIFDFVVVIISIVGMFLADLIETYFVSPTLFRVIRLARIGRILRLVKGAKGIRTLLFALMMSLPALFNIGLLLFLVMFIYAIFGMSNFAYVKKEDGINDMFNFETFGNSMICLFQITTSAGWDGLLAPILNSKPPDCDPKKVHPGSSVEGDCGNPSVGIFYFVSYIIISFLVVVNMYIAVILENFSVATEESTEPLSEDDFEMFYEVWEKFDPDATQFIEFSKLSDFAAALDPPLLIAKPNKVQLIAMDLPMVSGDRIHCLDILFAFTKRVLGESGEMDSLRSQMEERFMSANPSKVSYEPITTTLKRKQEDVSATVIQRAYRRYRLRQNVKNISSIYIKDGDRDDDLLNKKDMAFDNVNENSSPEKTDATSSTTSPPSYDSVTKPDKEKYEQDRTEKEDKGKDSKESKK

Another assay concerns the target human Nav1.8 (Homo sapiens (Human), UniProt Q9Y5Y9). The assay is described as follows: FRET-based membrane potential assay, recombinant human sodium channel Nav1.8. The format is cell-based. To be noted: HEK293 cells stably expressing recombinant human Nav1.8; depolarization with veratridine (EC80) + scorpion venom. The method, then: FRET-Based Membrane Potential Assays.
Recombinant, Human Sodium Channel, Nav1.8.
Two days prior to the experiment, frozen HEK293 cells stably expressing recombinant human Nav1.8 (Essen, Ann Arbor, Mich.) were quickly thawed and plated at 22,500 cells/well in growth medium [MEM (Invitrogen #11095) with 10% FBS (Invitrogen #10082), 1 mM sodium pyruvate (Invitrogen, #C11360), 10 units/mL penicillin/10 U/mL streptomycin/29.2 μg/mL glutamine ((PSG 1%, Invitrogen #10378), 400 μg/mL zeocin (Invitrogen #R250) in black-walled, clear-bottom 384-well poly-D-lysine-coated assay plates (Greiner Bio-One, Frickenhausen, Germany) and incubated in a humidified 5% CO2 incubator at 37° C. On the day of the assay, medium was removed by aspiration, and cells were washed with assay buffer [HBSS (Invitrogen, Carlsbad, Calif.) containing 20 mM HEPES (Invitrogen, Carlsbad, Calif.)]. After washing, 30 μL assay buffer containing the fluorescent voltage-sensor probe CC2-DMPE (Invitrogen, Carlsbad, Calif.) at 20 μM and 0.01% pluronic F-127 (Invitrogen, Carlsbad, Calif.) was added to the cells. Cells were incubated for 40 minutes at room temperature in the dark. Following the incubation, the cells were washed and 30 μL assay buffer containing 2.5 μM DiSBAC2(3) substrate (Invitrogen, Carlsbad, Calif.) and 0.5 mM VABSC-1 (Invitrogen, Carlsbad, Calif.) was added to the cells. The cells were incubated for 60 minutes at room temperature in the dark. Fluorescence readings were made using a FLIPR®^TETRA (Molecular Devices, Sunnyvale Calif.) equipped with voltage-sensor probe optics. The depolarizing agent, veratridine (Sigma-Aldrich, St. Louis, Mo.), was made up at 3× concentrations in assay buffer containing 1 mg/mL scorpion venom (SVqq, from Leiurus quinquestriatus; Sigma-Aldrich, St. Louis, Mo.). The assay agonist/opener concentration was determined each day using a 6-point veratridine concentration curve in duplicate, tested with three concentrations of tetracaine (0.1, 0.06, 0.01 μM all in 0.03% dimethyl sulfoxide) and 0.03% dimethyl sulfoxide control in assay buffer. […] Test compounds in the daughter plate were diluted to (˜3×) solutions in assay buffer immediately before assaying. Using the FLIPR®^TETRA, 20 μL of the (3×) compound solutions were first added to the cells, then 20 μL of depolarizing solution (3×EC80 veratridine+SVqq) were added 3 minutes later to activate the channel. Changes in fluorescence were measured at wavelengths of 440-480 nm and 565-625 nm over the course of the experimental run. Membrane depolarization was expressed as a ratio of the maximum F440-480 nm/F565-625 nm reading above average baseline F440-480 nm/F565-625 nm reading. IC50 values were calculated from curve fits of the ratio data using a four-parameter logistic Hill equation (Accelrys Assay Explorer 3.3 Client, Accelrys, San Diego, Calif.) with percent inhibition plotted against compound concentration.

Chain of human Nav1.8 (Q9Y5Y9 whole entry): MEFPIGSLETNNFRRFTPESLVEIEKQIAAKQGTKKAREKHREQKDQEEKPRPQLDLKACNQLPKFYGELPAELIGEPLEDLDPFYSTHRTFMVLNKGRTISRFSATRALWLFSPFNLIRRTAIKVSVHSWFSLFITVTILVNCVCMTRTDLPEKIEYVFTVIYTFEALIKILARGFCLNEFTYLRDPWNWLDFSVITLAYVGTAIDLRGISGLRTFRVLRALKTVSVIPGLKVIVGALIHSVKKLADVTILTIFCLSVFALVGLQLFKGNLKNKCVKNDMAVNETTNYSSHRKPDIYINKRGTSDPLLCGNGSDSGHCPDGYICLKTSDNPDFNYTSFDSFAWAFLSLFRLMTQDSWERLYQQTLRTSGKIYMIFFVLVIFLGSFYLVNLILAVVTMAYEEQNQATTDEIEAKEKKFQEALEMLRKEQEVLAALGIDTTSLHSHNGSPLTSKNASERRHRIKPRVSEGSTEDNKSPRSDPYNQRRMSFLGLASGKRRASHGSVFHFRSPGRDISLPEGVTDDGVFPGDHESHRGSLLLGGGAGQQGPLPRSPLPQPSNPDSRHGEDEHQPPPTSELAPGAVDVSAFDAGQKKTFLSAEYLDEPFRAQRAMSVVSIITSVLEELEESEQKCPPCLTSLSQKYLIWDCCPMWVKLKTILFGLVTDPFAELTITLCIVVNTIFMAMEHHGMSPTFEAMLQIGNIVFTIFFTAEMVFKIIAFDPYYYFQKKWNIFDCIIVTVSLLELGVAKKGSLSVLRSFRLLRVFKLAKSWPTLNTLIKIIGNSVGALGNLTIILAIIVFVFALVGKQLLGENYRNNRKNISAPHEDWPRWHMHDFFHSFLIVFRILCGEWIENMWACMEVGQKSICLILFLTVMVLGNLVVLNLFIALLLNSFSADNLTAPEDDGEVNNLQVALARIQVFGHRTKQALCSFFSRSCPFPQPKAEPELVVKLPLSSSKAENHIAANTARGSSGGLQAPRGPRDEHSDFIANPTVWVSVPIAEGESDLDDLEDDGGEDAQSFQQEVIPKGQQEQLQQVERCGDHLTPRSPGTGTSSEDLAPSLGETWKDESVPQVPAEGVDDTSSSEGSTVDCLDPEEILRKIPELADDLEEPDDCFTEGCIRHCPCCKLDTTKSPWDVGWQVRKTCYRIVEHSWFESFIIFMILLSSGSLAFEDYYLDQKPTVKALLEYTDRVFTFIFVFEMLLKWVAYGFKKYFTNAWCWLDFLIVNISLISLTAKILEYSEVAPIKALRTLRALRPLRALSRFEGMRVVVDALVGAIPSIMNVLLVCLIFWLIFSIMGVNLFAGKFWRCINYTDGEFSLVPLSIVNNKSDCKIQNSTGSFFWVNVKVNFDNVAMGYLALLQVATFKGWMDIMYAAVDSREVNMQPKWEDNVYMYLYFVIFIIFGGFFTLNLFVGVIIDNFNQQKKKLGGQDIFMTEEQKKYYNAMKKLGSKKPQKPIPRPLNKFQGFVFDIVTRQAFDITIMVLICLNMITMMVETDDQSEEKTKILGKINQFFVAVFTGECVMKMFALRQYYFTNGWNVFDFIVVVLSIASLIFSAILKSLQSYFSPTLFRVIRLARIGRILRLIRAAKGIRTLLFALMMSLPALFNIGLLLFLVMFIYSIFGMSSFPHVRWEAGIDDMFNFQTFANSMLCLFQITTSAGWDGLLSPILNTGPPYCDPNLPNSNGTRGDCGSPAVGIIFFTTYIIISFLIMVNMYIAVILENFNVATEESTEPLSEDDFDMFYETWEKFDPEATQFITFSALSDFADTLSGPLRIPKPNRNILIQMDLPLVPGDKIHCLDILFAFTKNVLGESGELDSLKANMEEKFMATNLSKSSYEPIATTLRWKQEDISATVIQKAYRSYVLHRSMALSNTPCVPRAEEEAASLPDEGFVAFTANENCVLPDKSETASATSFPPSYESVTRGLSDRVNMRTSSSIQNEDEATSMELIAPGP

For the compound `O=C(CN1CCN(c2cccc3c2cnn3-c2ccccc2F)C1=O)N1CCCC(C(F)(F)F)C1` (stereo not shown) [Example 300, 1-[1-(2-fluorophenyl)-1H-indazol-4-yl]-3-{2-oxo-2-[3-(trifluoromethyl)piperidin-1-yl]ethyl}imidazolidin-2-one], the IC50 at human Nav1.7 turned out to be 3110 nM; on human Nav1.8, 1060 nM.

Take `O=C(CN1CCN(c2cccc3c2cnn3-c2ccccc2F)C1=O)N1C[C@H]2CC[C@@H](C1)O2` [Example 301, 1-[1-(2-fluorophenyl)-1H-indazol-4-yl]-3-{2-[(1R,5S)-8-oxa-3-azabicyclo[3.2.1]oct-3-yl]-2-oxoethyl}imidazolidin-2-one]: the figures for the IC50 at human Nav1.7 and on human Nav1.8 were 3160 nM and 1560 nM, respectively.

For `O=C1CCN(C(=O)CN2CCN(c3cccc4c3cnn4-c3ccccc3F)C2=O)C1` [Example 302, 1-[1-(2-fluorophenyl)-1H-indazol-4-yl]-3-[2-oxo-2-(3-oxopyrrolidin-1-yl)ethyl]imidazolidin-2-one], the IC50 at human Nav1.7 came out at 20000 nM; at human Nav1.8 it was 7180 nM.

`O=C(CN1CCN(c2cccc3c2cnn3-c2ccccc2F)C1=O)N1CCCCCC1` [Example 303, 1-[2-(azepan-1-yl)-2-oxoethyl]-3-[1-(2-fluorophenyl)-1H-indazol-4-yl]imidazolidin-2-one]: the IC50 was 2460 nM at human Nav1.7 and 930 nM on human Nav1.8.

Regarding `O=C(CN1CCN(c2cccc3c2cnn3-c2ccccc2F)C1=O)NCC(F)(F)F` [Example 304, 2-{3-[1-(2-fluorophenyl)-1H-indazol-4-yl]-2-oxoimidazolidin-1-yl}-N-(2,2,2-trifluoroethyl)acetamide], the results for the IC50 at human Nav1.7 and on human Nav1.8 were 4790 nM and 1410 nM, respectively.

For the compound `CC(C)(C)CCn1ncc2c(N3CCN(CC(=O)N4CCCC4)C3=O)cccc21` [Example 305, 1-[1-(3,3-dimethylbutyl)-1H-indazol-4-yl]-3-[2-oxo-2-(pyrrolidin-1-yl)ethyl]imidazolidin-2-one], the IC50 on human Nav1.7 stood at 3670 nM; on human Nav1.8, 3330 nM.

As to `CC(C)(C)n1ncc2c(N3CCN(CC(=O)N4CC[C@H](F)C4)C3=O)cccc21` [Example 306, 1-(1-tert-butyl-1H-indazol-4-yl)-3-{2-[(3S)-3-fluoropyrrolidin-1-yl]-2-oxoethyl}imidazolidin-2-one], the IC50 on human Nav1.7 and on human Nav1.8 was 20000 nM in each case.

As for `O=C(CN1CCN(c2cccc3c2cnn3-c2ccccc2F)C1=O)N1CC[C@H](C(F)(F)F)C1` [Example 308, 1-[1-(2-fluorophenyl)-1H-indazol-4-yl]-3-{2-oxo-2-[(3S)-3-(trifluoromethyl)pyrrolidin-1-yl]ethyl}imidazolidin-2-one], the IC50 was determined as 1020 nM at human Nav1.7 and 345 nM on human Nav1.8.

In the case of `CC1(F)CN(C(=O)CN2CCN(c3cccc4c3cnn4-c3ccccc3F)C2=O)C1` [Example 309, 1-[2-(3-fluoro-3-methylazetidin-1-yl)-2-oxoethyl]-3-[1-(2-fluorophenyl)-1H-indazol-4-yl]imidazolidin-2-one], the figures for the IC50 at human Nav1.7 and at human Nav1.8 were 695 nM and 725 nM, respectively.

`O=C(CN1CCN(c2cccc3c2cnn3-c2ccccc2F)C1=O)NC1CC(F)(F)C1` [Example 310, N-(3,3-difluorocyclobutyl)-2-{3-[1-(2-fluorophenyl)-1H-indazol-4-yl]-2-oxoimidazolidin-1-yl}acetamide]: the IC50 at human Nav1.7 was found to be 2810 nM; at human Nav1.8, 878 nM.

Take `O=C1C[C@H]2CC[C@@H](C1)N2C(=O)CN1CCN(c2cccc3c2cnn3-c2ccccc2F)C1=O` [Example 311, (1R,5S)-8-({3-[1-(2-fluorophenyl)-1H-indazol-4-yl]-2-oxoimidazolidin-1-yl}acetyl)-8-azabicyclo[3.2.1]octan-3-one]: the IC50 at human Nav1.7 stood at 5850 nM; at human Nav1.8, 4350 nM.

With `O=C(CN1CCN(c2cccc3c2cnn3-c2ccccc2F)C1=O)N1CC(F)(F)C(F)(F)C1` [Example 312, 1-[1-(2-fluorophenyl)-1H-indazol-4-yl]-3-[2-oxo-2-(3,3,4,4-tetrafluoropyrrolidin-1-yl)ethyl]imidazolidin-2-one], the IC50 was 1710 nM on human Nav1.7 and 1680 nM at human Nav1.8.

For the compound `O=C1CCCN(C(=O)CN2CCN(c3cccc4c3cnn4-c3ccccc3F)C2=O)CC1` [Example 313, 1-({3-[1-(2-fluorophenyl)-1H-indazol-4-yl]-2-oxoimidazolidin-1-yl}acetyl)azepan-4-one], the half-maximal inhibitory concentration (IC50) on human Nav1.7 worked out at 2720 nM; at human Nav1.8, 3250 nM.

With `O=C(/C=C\N1CCN(c2cccc3c2cnn3-c2ccccc2F)C1=O)N1CC[C@H](F)C1` [Example 314, 1-[1-(2-fluorophenyl)-1H-indazol-4-yl]-3-{(1Z)-3-[(3S)-3-fluoropyrrolidin-1-yl]-3-oxoprop-1-en-1-yl}imidazolidin-2-one], the IC50 on human Nav1.7 came to 3250 nM; on human Nav1.8, 912 nM.

Take `CCNC(=O)CN1CCN(c2cccc3c2cnn3-c2ccccc2F)C1=O` [Example 315, N-ethyl-2-{3-[1-(2-fluorophenyl)-1H-indazol-4-yl]-2-oxoimidazolidin-1-yl}acetamide]: the IC50 on human Nav1.7 worked out at 2960 nM; at human Nav1.8 it was 3560 nM.

Consider `O=C(CCN1CCN(c2cccc3c2cnn3-c2ccccc2F)C1=O)N1CCC[C@@H](F)C1` [Example 317, 1-[1-(2-fluorophenyl)-1H-indazol-4-yl]-3-{3-[(3R)-3-fluoropiperidin-1-yl]-3-oxopropyl}imidazolidin-2-one], for which the IC50 at human Nav1.7 was found to be 2440 nM; on human Nav1.8, 1280 nM.

Regarding `O=C(CCN1CCN(c2cccc3c2cnn3-c2ccccc2F)C1=O)N1CCC[C@H](F)C1` [Example 318, 1-[1-(2-fluorophenyl)-1H-indazol-4-yl]-3-{3-[(3S)-3-fluoropiperidin-1-yl]-3-oxopropyl}imidazolidin-2-one], the concentration for half-maximal inhibition (IC50) came out at 3140 nM on human Nav1.7 and 3470 nM at human Nav1.8.

`COC1CN(C(=O)CN2CCN(c3cccc4c3cnn4-c3ccccc3F)C2=O)C1` [Example 319, 1-[1-(2-fluorophenyl)-1H-indazol-4-yl]-3-[2-(3-methoxyazetidin-1-yl)-2-oxoethyl]imidazolidin-2-one]: the values for the IC50 on human Nav1.7 and at human Nav1.8 were 3140 nM and 3020 nM, respectively.

For `O=C(CN1CCN(c2cccc3c2cnn3-c2ccccc2F)C1=O)NC1CCOCC1` [Example 320, 2-{3-[1-(2-fluorophenyl)-1H-indazol-4-yl]-2-oxoimidazolidin-1-yl}-N-(tetrahydro-2H-pyran-4-yl)acetamide], the IC50 at human Nav1.7 is 16800 nM; on human Nav1.8, 10100 nM.

For `O=C(CN1CCN(c2cccc3c2cnn3-c2ccccc2F)C1=O)NC1COC1` [Example 321, 2-{3-[1-(2-fluorophenyl)-1H-indazol-4-yl]-2-oxoimidazolidin-1-yl}-N-(oxetan-3-yl)acetamide], the figures for the IC50 at human Nav1.7 and on human Nav1.8 were 5790 nM and 5670 nM, respectively.

Consider `O=C(CN1CCN(c2cccc3c2cnn3-c2ccccc2F)C1=O)NC1CCC1` [Example 322, N-cyclobutyl-2-{3-[1-(2-fluorophenyl)-1H-indazol-4-yl]-2-oxoimidazolidin-1-yl}acetamide], for which the IC50 on human Nav1.7 came out at 973 nM; on human Nav1.8 it was 1890 nM.

In the case of `O=C(CN1CCN(c2cccc3c2cnn3-c2ccccc2F)C1=O)NC1CCCC1` [Example 323, N-cyclopentyl-2-{3-[1-(2-fluorophenyl)-1H-indazol-4-yl]-2-oxoimidazolidin-1-yl}acetamide], the figures for the IC50 at human Nav1.7 and on human Nav1.8 were 1460 nM and 695 nM, respectively.

`O=C(CN1CCN(c2cccc3c2cnn3-c2ccccc2F)C1=O)NC1CCCCC1` [Example 324, N-cyclohexyl-2-{3-[1-(2-fluorophenyl)-1H-indazol-4-yl]-2-oxoimidazolidin-1-yl}acetamide]: the IC50 is 1410 nM on human Nav1.7 and 526 nM at human Nav1.8.
